According to the supplement of paper PMC10331698:
± gives the standard deviation of the averaged measurements.

Key:
Test in all cases: level (log10 ratio to DMSO vehicle control); higher = higher biomarker level / cell amount than vehicle control
[1] = compound: OCCCC(F)(F)C(F)(F)C(F)(F)C(F)(F)C(F)(F)C(F)(F)C(F)(F)C(F)(F)F [3-(Perfluorooctyl)propanol]; conditions: 6700 nM; in DMSO
Experimental: (§1)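 BioMAP Diversity Plus panel of 12 human primary cell co-culture systems (3C, 4H, LPS, SAg, BT, BF4T, BE3C, CASM3C, HDF3CGF, KF3CT, MyoF, Mphg). Compounds were added 1 h before stimulation and left for 24 h (MyoF 48 h; BT 72 h for soluble read-outs or 6 d for IgG). Biomarkers were read by ELISA, cytotoxicity by SRB, PBMC viability and proliferation by Alamar Blue. Each well value was divided by the mean of 8 DMSO control wells on the same plate and log10 transformed; duplicate blinded samples were tested at 4 concentrations.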

[2] = compound: C=CC(=O)OCCC(F)(F)C(F)(F)C(F)(F)C(F)(F)C(F)(F)C(F)(F)C(F)(F)C(F)(F)F [8:2 Fluorotelomer acrylate]; conditions: in DMSO
Experimental: as §1

[3] = compound: OCCC(F)(F)C(F)(F)C(F)(F)C(F)(F)C(F)(F)C(F)(F)C(F)(F)C(F)(F)F [8:2 Fluorotelomer alcohol]; conditions: 6700 nM; in DMSO
Experimental: as §1

[4] = compound: C=CC(=O)OCC(F)(F)C(F)(F)C(F)(F)C(F)(F)COC(=O)C=C [1H,1H,6H,6H-Perfluorohexane-1,6-diol diacrylate]; conditions: 6700 nM; in DMSO
Experimental: as §1

[5] = compound: C=C(C)C(=O)OCC(F)(F)C(F)(F)C(F)(F)F [2,2,3,3,4,4,4-Heptafluorobutyl methacrylate]; conditions: in DMSO
Experimental: as §1

[6] = compound: FC(F)(F)C(F)(F)C(F)(F)C(F)(F)CCI [1H,1H,2H,2H-Perfluorohexyl iodide]; conditions: in DMSO
Experimental: as §1

[7] = compound: O=C(O)C(F)(F)C(F)(F)C(F)(F)C(F)(F)C(F)(F)C(F)(F)C(F)(F)F [Ammonium perfluorooctanoate]; conditions: in DMSO
Experimental: as §1

[8] = compound: C=CC(=O)OCC(F)(F)C(F)(F)C(F)(F)C(F)(F)C(F)(F)C(F)(F)C(F)(F)C(F)F [1H,1H,9H-Perfluorononyl acrylate]; conditions: in DMSO
Experimental: as §1

Test System | level (log10) [1] | level (log10) ([2]; 6700 nM) | level (log10) ([2]; 20000 nM) | level (log10) ([2]; 60000 nM) | level (log10) [3] | level (log10) [4] | level (log10) ([5]; 6700 nM) | level (log10) ([5]; 20000 nM) | level (log10) ([5]; 60000 nM) | level (log10) ([6]; 6700 nM) | level (log10) ([6]; 20000 nM) | level (log10) ([6]; 60000 nM) | level (log10) ([7]; 6700 nM) | level (log10) ([7]; 20000 nM) | level (log10) ([7]; 60000 nM) | level (log10) ([8]; 6700 nM) | level (log10) ([8]; 20000 nM) | level (log10) ([8]; 60000 nM)
HDF3CGF:Collagen I | 0.161 ± 0.077 | -0.025 ± 0.0028 | -0.008 ± 0.0071 | 0.0325 ± 0.018 | -0.022 ± 0.0042 | -0.013 ± 0.048 | -0.0145 ± 0.0021 | -0.0495 ± 0.064 | 0.016 ± 0.033 | 0.004 ± 0.047 | -0.0205 ± 0.063 | 0.015 ± 0.11 | 0.0285 ± 0.019 | 0.01 ± 0.021 | -0.0645 ± 0.088 | -0.0115 ± 0.016 | -0.0075 ± 0.056 | -0.0605 ± 0.11
lMphg:SRB | 0.0045 ± 0.0078 | -0.003 ± 0.0085 | -0.0105 ± 0.016 | -0.004 ± 0.034 | -0.02 | -0.0075 ± 0.0035 | -0.0075 ± 0.0092 | -0.004 ± 0.0057 | 0.0005 ± 0.021 | -0.008 ± 0.011 | -0.003 ± 0.0028 | 0 ± 0.021 | -0.0125 ± 0.0035 | -0.004 ± 0.0028 | 0.0015 ± 0.005 | -0.003 ± 0.0014 | -0.005 ± 0.0042 | -0.005 ± 0.0057
3C:CCL2/MCP-1 | 0.003 ± 0.013 | 0.005 ± 0.0042 | -0.0155 ± 0.0064 | 0.019 ± 0.016 | -0.0025 ± 0.0021 | 0.025 ± 0.044 | -0.0015 ± 0.0035 | -0.009 ± 0.0071 | 0.01 ± 0.027 | 0.015 ± 0.0014 | -0.0195 ± 0.0092 | 0.0055 ± 0.026 | -0.002 ± 0.0099 | 0.004 ± 0.025 | 0.0315 ± 0.035 | 0.0115 ± 0.053 | -0.017 ± 0.016 | 0.008 ± 0.024
MyoF:bFGF | -0.034 ± 0.017 | -0.015 ± 0.0028 | -0.015 ± 0.014 | -0.0025 ± 0.0092 | 0.002 ± 0.018 | 0.0155 ± 0.0064 | 0.007 ± 0.0099 | -0.01 ± 0.0085 | 0.007 ± 0.024 | 0.0095 ± 0.021 | 0.0205 ± 0.026 | 0.0285 ± 0.042 | 0 ± 0.013 | -0.007 ± 0.014 | 0.0015 ± 0.015 | 0.012 ± 0.0057 | 0.0155 ± 0.021 | 0.027 ± 0.0014
MyoF:Collagen IV | -0.0385 ± 0.029 | -0.022 ± 0.0042 | -0.002 ± 0.0057 | -0.0135 ± 0.036 | 0.0065 ± 0.0021 | -0.0715 ± 0.015 | -0.0185 ± 0.019 | 0.004 ± 0.065 | 0.014 ± 0.075 | 0.011 ± 0.031 | 0.024 ± 0.017 | 0.021 ± 0.05 | 0.06 ± 0.0099 | 0.0745 ± 0.0035 | 0.225 ± 0.05 | 0.02 ± 0.0014 | 0.015 ± 0.024 | 0.0035 ± 0.021
lMphg:CCL3/MIP-1alpha | -0.018 ± 0.0014 | 0.056 ± 0.011 | 0.0485 ± 0.047 | 0.0325 ± 0.025 | 0.079 ± 0.011 | -0.0045 ± 0.07 | -0.0095 ± 0.0092 | -0.0355 ± 0.044 | -0.0065 ± 0.012 | -0.0185 ± 0.00071 | -0.0515 ± 0.023 | -0.013 ± 0.014 | 0.003 ± 0.018 | 0.013 ± 0.024 | 0.0395 ± 0.029 | 0.015 | 0.012 ± 0.023 | 0.061 ± 0.0028
CASM3C:CD141/Thrombomodulin | 0.0455 ± 0.019 | 0.0125 ± 0.011 | -0.005 ± 0.0071 | 0.009 ± 0.013 | 0.0135 ± 0.0021 | 0.0295 ± 0.016 | 0.0205 ± 0.011 | 0 ± 0.042 | 0.0115 ± 0.036 | -0.0085 ± 0.021 | -0.009 ± 0.014 | 0.0275 ± 0.049 | 0.014 ± 0.035 | 0.0205 ± 0.036 | 0.0465 ± 0.032 | -0.014 ± 0.069 | -0.0095 ± 0.0078 | -0.0175 ± 0.033
CASM3C:Proliferation | -0.026 ± 0.033 | 0.006 ± 0.021 | -0.05 ± 0.013 | -0.045 ± 0.037 | 0.003 ± 0.017 | -0.0005 ± 0.037 | -0.012 ± 0.027 | -0.0015 ± 0.0035 | 0.0215 ± 0.012 | -0.01 ± 0.0071 | -0.0155 ± 0.016 | -0.0535 ± 0.0064 | 0.0125 ± 0.018 | -0.007 ± 0.045 | -0.021 ± 0.0071 | 0.03 ± 0.034 | 0.0175 ± 0.057 | -0.03 ± 0.093
MyoF:Collagen I | -0.046 ± 0.024 | -0.0095 ± 0.005 | -0.0205 ± 0.015 | 0.011 ± 0.0099 | -0.0025 ± 0.021 | -0.01 ± 0.052 | 0.0055 ± 0.013 | 0.001 ± 0.021 | 0.018 ± 0.027 | -0.0005 ± 0.0035 | 0.0005 ± 0.022 | 0.0205 ± 0.042 | -0.006 ± 0.0014 | 0.0025 ± 0.013 | -0.0125 ± 0.015 | 0.0005 ± 0.023 | 0.0025 ± 0.00071 | -0.033 ± 0.028
KF3CT:CXCL8/IL-8 | 0.003 ± 0.0057 | -0.011 ± 0.0014 | -0.047 ± 0.076 | -0.117 ± 0.053 | 0.0035 ± 0.0035 | 0.0005 ± 0.021 | -0.0045 ± 0.023 | -0.0035 ± 0.015 | -0.0035 ± 0.013 | 0.0135 ± 0.044 | 0.0355 ± 0.042 | 0.0315 ± 0.047 | 0.0075 ± 0.032 | 0.036 ± 0.018 | 0.034 ± 0.02 | -0.0015 ± 0.0092 | 0.016 ± 0.0028 | 0.012 ± 0.033
BE3C:MMP-9 | 0.036 ± 0.038 | -0.027 ± 0.0071 | -0.016 ± 0.0042 | -0.011 ± 0.024 | -0.028 ± 0.02 | -0.0435 ± 0.018 | 0.0155 ± 0.0092 | -0.0075 ± 0.016 | 0.032 ± 0.025 | 0.0015 ± 0.05 | -0.006 ± 0.028 | 0.029 ± 0.047 | -0.0145 ± 0.0064 | 0.047 ± 0.0042 | 0.0375 ± 0.021 | 0.0015 ± 0.0035 | -0.0185 ± 0.012 | 0 ± 0.021
lMphg:CD106/VCAM-1 | 0.001 ± 0.0099 | 0 ± 0.013 | -0.015 ± 0.0014 | -0.0045 ± 0.03 | 0.0055 ± 0.012 | -0.0445 ± 0.018 | 0.0005 ± 0.0021 | 0.005 ± 0.04 | 0.0115 ± 0.026 | 0.0015 ± 0.018 | -0.0005 ± 0.016 | 0.009 ± 0.013 | 0.0135 ± 0.0035 | 0.023 ± 0.0014 | -0.0105 ± 0.0021 | -0.03 | -0.029 ± 0.0099 | -0.0405 ± 0.0092
MyoF:TIMP-1 | -0.0115 ± 0.046 | -0.0615 ± 0.011 | -0.039 ± 0.025 | -0.014 ± 0.0042 | -0.0435 ± 0.025 | -0.0015 ± 0.016 | 0.017 ± 0.028 | 0.0135 ± 0.025 | 0.0075 ± 0.0064 | 0.019 ± 0.041 | 0.024 ± 0.083 | 0.021 ± 0.12 | 0.004 ± 0.0085 | 0.012 ± 0.02 | 0.01 ± 0.033 | -0.0205 ± 0.0078 | -0.015 ± 0.0085 | -0.008 ± 0.03
CASM3C:LDLR | 0.0385 ± 0.023 | -0.008 ± 0.011 | -0.0135 ± 0.011 | -0.002 ± 0.0099 | -0.0045 ± 0.0078 | 0.001 ± 0.028 | -0.0045 ± 0.036 | 0.006 ± 0.0042 | 0.0055 ± 0.0078 | 0.0305 ± 0.021 | 0.02 ± 0.035 | 0.0415 ± 0.053 | -0.0015 ± 0.018 | 0 ± 0.031 | 0.0085 ± 0.039 | -0.0545 ± 0.026 | 0.0515 ± 0.042 | 0.0355 ± 0.063
